Measurements as given in patent US20250353864A1, “INDAZOLE CONTAINING MACROCYCLES AND THEIR USE” (BLOSSOMHILL THERAPEUTICS, INC., priority 2022, published 2025).

How the values were obtained:
Assay type in all cases: biochemical
[1] = target: EGFR WT (Homo sapiens (Human), UniProt P00533); test: HotSpot radiometric kinase assay (Reaction Biology), EGFR WT; conditions: 10 μM ATP
Description: (§1) Biochemical Assays for Inhibition of Wild-Type and Mutant EGFRs
(§2) Briefly, specific kinase/substrate pairs along with required cofactors were prepared in reaction buffer; 20 mM Hepes pH 7.5, 10 mM […], 1 mM EGTA, 0.02% Brij35, 0.02 mg/ml BSA, 0.1 mM Na3VO4, 2 mM DTT, 1% DMSO. Compounds were delivered into the reaction, followed […] later by addition of a mixture of ATP (Sigma, St. Louis MO) and ^33P ATP (Perkin Elmer, Waltham MA) to a final concentration of 10 μM. Reactions were carried out at room temperature for 120 min, followed by spotting of the reactions onto P81 ion exchange filter paper (Whatman Inc., Piscataway, NJ). Unbound phosphate was removed by extensive washing of filters in 0.75% phosphoric acid. […] IC50 values and curve fits were obtained using Prism (GraphPad Software).

[2] = target: EGFR (D770_N771insNPG) (Homo sapiens (Human), UniProt P00533, INS770NPG); test: HotSpot radiometric kinase assay, EGFR (D770_N771insNPG); conditions: 10 μM ATP, read-out: EGFR (Δ770_N771insNPG) IC50
Description: as §1, §2

[3] = target: EGFR Δ746-750 mutant (Homo sapiens (Human), UniProt P00533, DEL746-750); test: HotSpot radiometric kinase assay, EGFR Δ746-750 mutant; conditions: 10 μM ATP
Description: as §1, §2

[4] = target: EGFR Δ746-750/C797S mutant (Homo sapiens (Human), UniProt P00533, C797S/DEL746-750); test: HotSpot radiometric kinase assay, EGFR Δ746-750/C797S mutant; conditions: 10 μM ATP
Description: as §1, §2

[5] = target: EGFR L858R mutant (Homo sapiens (Human), UniProt P00533, L858R); test: HotSpot radiometric kinase assay, EGFR L858R mutant; conditions: 10 μM ATP
Description: as §1, §2

[6] = target: EGFR L858R/T790M mutant (Homo sapiens (Human), UniProt P00533, L858R/T790M); test: HotSpot radiometric kinase assay, EGFR L858R/T790M mutant; conditions: 10 μM ATP
Description: as §1, §2

[7] = target: EGFR L858R/T790M/C797S mutant (Homo sapiens (Human), UniProt P00533, C797S/L858R/T790M); test: HotSpot radiometric kinase assay, EGFR L858R/T790M/C797S mutant; conditions: 10 μM ATP
Description: as §1, §2

EGFR Δ746-750 mutant, sequence (P00533 other isoform, or with tags, fused parts or gaps del 1-668/del 746-750 limits assumed): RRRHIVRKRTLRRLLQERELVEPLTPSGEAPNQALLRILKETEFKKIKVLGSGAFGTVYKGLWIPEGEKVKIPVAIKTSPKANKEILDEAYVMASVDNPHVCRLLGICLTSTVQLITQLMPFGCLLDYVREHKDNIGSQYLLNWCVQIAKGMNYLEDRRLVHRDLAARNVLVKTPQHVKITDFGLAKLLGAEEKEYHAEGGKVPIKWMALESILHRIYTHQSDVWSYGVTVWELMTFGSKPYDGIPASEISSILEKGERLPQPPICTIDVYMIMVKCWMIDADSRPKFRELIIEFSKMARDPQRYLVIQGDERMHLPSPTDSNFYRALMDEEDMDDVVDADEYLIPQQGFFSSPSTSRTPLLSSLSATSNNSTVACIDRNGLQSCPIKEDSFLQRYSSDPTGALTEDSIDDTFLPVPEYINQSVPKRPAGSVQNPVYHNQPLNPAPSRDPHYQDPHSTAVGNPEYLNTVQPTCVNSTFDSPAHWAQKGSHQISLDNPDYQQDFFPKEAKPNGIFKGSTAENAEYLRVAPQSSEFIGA
EGFR L858R mutant, sequence (P00533 25-1210 L858R): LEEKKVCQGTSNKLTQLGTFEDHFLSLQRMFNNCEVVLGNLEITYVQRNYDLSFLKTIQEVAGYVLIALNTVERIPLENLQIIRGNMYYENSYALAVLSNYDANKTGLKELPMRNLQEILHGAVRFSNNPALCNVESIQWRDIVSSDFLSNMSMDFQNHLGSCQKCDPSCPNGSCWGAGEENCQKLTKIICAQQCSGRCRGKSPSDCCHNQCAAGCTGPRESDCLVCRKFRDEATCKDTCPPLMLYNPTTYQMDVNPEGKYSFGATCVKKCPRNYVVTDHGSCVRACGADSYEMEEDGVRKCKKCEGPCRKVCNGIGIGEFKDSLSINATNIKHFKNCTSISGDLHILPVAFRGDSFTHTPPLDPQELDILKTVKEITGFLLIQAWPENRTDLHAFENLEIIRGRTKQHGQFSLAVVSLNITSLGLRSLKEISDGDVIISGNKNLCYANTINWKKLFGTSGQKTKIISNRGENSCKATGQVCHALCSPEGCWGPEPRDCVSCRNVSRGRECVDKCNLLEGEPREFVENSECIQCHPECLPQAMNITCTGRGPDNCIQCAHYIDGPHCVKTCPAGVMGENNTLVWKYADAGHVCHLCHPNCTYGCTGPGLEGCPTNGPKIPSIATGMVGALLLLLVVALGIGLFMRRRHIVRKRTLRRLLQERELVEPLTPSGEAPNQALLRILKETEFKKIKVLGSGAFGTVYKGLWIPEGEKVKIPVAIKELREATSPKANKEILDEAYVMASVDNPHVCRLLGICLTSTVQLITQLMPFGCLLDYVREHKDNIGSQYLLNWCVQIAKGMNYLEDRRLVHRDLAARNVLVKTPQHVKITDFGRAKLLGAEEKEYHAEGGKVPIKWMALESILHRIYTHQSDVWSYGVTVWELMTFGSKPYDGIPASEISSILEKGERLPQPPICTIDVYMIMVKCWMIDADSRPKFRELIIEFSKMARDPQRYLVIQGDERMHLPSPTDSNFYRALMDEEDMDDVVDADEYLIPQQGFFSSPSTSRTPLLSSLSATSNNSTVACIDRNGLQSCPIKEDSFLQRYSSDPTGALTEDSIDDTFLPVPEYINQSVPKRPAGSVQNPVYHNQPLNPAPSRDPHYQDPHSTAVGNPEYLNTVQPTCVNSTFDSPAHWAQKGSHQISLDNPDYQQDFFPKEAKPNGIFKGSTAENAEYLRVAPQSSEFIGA
EGFR Δ746-750/C797S mutant, sequence (P00533 other isoform, or with tags, fused parts or gaps C797S/del 1-668/del 746-750 limits assumed): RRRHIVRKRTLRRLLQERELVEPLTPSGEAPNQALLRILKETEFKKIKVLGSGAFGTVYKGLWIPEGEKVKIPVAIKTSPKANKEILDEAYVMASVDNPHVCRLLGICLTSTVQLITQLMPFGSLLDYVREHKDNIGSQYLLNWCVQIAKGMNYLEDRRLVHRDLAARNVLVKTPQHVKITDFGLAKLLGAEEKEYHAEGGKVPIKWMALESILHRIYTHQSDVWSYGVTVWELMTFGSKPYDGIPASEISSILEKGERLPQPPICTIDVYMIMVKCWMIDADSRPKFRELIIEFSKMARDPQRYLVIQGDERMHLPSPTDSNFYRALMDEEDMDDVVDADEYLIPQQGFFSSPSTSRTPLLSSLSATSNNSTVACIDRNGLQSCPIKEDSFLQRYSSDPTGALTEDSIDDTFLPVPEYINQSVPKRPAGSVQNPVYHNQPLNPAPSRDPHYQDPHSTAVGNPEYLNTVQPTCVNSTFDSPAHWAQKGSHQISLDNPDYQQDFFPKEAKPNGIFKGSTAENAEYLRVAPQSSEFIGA
EGFR L858R/T790M mutant, sequence (P00533 25-1210 T790M/L858R): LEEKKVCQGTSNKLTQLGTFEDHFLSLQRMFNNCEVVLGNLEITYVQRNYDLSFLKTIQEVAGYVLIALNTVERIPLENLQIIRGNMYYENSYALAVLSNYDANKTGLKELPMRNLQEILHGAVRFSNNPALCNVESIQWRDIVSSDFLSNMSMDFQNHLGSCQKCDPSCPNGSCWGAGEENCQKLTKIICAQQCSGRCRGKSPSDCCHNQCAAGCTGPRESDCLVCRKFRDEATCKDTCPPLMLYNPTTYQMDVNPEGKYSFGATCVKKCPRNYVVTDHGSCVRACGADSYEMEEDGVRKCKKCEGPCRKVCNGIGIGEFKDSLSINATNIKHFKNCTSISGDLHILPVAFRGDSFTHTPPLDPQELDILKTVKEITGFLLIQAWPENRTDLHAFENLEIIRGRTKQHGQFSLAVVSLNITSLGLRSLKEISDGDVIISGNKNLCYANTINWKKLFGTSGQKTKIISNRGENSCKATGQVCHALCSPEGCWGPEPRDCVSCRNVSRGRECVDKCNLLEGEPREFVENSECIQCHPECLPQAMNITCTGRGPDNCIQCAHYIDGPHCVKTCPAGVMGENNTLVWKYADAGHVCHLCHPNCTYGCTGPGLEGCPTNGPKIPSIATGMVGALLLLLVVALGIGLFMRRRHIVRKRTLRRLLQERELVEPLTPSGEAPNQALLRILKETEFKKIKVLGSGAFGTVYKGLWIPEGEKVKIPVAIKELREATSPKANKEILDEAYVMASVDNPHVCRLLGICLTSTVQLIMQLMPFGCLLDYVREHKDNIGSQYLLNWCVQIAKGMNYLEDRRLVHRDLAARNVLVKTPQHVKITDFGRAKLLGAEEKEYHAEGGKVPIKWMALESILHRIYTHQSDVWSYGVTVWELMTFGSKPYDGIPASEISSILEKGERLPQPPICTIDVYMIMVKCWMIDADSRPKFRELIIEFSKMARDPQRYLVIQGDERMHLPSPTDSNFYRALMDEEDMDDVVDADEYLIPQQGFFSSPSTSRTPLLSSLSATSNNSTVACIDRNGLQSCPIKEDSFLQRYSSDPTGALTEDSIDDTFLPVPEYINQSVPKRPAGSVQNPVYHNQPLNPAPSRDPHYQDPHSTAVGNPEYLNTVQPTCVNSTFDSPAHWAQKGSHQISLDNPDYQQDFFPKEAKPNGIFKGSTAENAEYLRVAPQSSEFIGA
EGFR (D770_N771insNPG), sequence (P00533 other isoform, or with tags, fused parts or gaps del 1-668/ins NPG behind 770 limits assumed): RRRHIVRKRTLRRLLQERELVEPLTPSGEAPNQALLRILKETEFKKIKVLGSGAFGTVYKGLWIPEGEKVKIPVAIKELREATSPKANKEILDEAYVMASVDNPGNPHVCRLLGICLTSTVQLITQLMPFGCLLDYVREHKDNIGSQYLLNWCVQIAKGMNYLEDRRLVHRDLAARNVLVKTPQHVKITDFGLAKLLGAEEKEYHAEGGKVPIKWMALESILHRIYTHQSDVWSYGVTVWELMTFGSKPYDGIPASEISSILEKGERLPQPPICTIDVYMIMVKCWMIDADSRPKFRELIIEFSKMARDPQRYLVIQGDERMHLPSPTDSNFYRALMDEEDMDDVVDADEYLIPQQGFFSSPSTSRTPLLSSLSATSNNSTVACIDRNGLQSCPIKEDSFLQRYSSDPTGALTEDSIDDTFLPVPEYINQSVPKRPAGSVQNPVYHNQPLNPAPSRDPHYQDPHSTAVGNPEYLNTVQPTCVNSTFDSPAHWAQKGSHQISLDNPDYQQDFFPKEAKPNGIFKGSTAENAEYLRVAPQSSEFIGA

Structure (SMILES)	IC50 [1]	IC50 [2]	IC50 [3]	IC50 [4]	IC50 [5]	IC50 [6]	IC50 [7]
Cc1c2c(nn1CCO)CN(C)C[C@H](C)Oc1c(cnn1C)-c1ccc3[nH]nc(c3c1)/C=C/2 [Example 60, 2-[(10S,17E)-8,10,12,16-tetramethyl-2,8,10,11,12,13-hexahydro-15H-3,5-ethenotripyrazolo[3,4-f:3′,4′-j:4″,3″- n][1,4]oxazacyclopentadecin-15-yl]ethan-1-ol]	581 nM	678 nM	89.7 nM	89.4 nM	101 nM	6.86 nM	3.27 nM
CC(C)Oc1nn([C@@H](C)CO)c2c1/C=C/c1n[nH]c3ccc(cc13)-c1cnn(C)c1O[C@H](C)CN(C(C)C)C2 [Example 207, (2S)-2-{(10R,17E)-8,10-dimethyl-12-(propan-2-yl)-16-[(propan-2-yl)oxy]-2,8,10,11,12,13-hexahydro-14H-3,5-ethenotripyrazolo[3,4-f:3′,4′-j:4″,3″- n][1,4]oxazacyclopentadecin-14-yl}propan-1-ol]	> 1000 nM	> 1000 nM	> 1000 nM	> 1000 nM	> 1000 nM	> 1000 nM	> 1000 nM
Cc1c2c(nn1CCO)OCCOC(C)c1c(cnn1C)-c1ccc3[nH]nc(c3c1)/C=C/2 (stereo not drawn) [Example 79, 2-[(17E)-8,9,16-trimethyl-8,9,11,12-tetrahydro-3,5-etheno[1,4]dioxacyclopentadecino[11,10-c:15,14-c′:6,7-c″ ]tripyrazol-15(2H)-yl]ethan-1-ol]	1910 nM	951 nM	596 nM	284 nM	526 nM	57.1 nM	67.7 nM
Cc1nn([C@H]2COC[C@@H]2O)c2c1/C=C/c1n[nH]c3ccc(cc13)-c1cnn(C)c1OCCCO2 (single isomer, unassigned) [Example 76]	538 nM	233 nM	147 nM	90.8 nM	156 nM	42.9 nM	63.4 nM
Cc1nn([C@@H]2COC[C@H]2O)c2c1/C=C/c1n[nH]c3ccc(cc13)-c1cnn(C)c1OCCCO2 (single isomer, unassigned) [Example 77]	> 1000 nM	1880 nM	749 nM	803 nM	2080 nM	427 nM	453 nM
CCOc1nn(CCO)c2c1/C=C/c1n[nH]c3ccc(cc13)-c1cnn(C)c1O[C@H]1CN(C)C[C@@H]1N(C)C2 (single isomer, unassigned) [Ex. 270]	543 nM	635 nM	93.6 nM	20.5 nM	161 nM	4.58 nM	1.1 nM
CCOc1ccc2c(n1)/C=C/c1n[nH]c3ccc(cc13)-c1cnn(C)c1O[C@@H](C)CN(C)C2 [Ex. 267, (10S,18E)-16-ethoxy-8,10,12-trimethyl-2,8,10,11,12,13-hexahydro-3,5-ethenodipyrazolo[3,4-j:4′,3′-n]pyrido[3,2-f][1,4]oxazacyclopentadecine]	769 nM	1230 nM	117 nM	107 nM	241 nM	8.31 nM	5.42 nM

The next molecules have a lower IC50 [1] than those just listed; values first:

IC50 [1]	IC50 [2]	IC50 [3]	IC50 [4]	IC50 [5]	IC50 [6]	IC50 [7]	Structure (SMILES)
6.36 nM	33.4 nM	3.21 nM	2.58 nM	2.31 nM	0.45 nM	0.37 nM	C[C@H]1CN(C)Cc2c(c(OC3CN(S(C)(=O)=O)C3)nn2C)/C=C/c2n[nH]c3ccc(cc23)-c2cnn(C)c2O1 [Example 150, (10S,17E)-16-{[1-(methanesulfonyl)azetidin-3-yl]oxy}-8,10,12,14-tetramethyl-2,10,11,12,13,14-hexahydro-8H-3,5-ethenotripyrazolo[3,4-f:3′,4′-j:4″,3″-n][1,4]oxazacyclopentadecine]
70.1 nM	53.5 nM	6.91 nM	8.36 nM	20 nM	2.2 nM	6.18 nM	Cc1c2c(nn1C1CCN(C)C1)OCCN(C)Cc1c(cnn1C)-c1ccc3[nH]nc(c3c1)/C=C/2 (stereo not drawn) [Example 117, (17E)-8,10,16-trimethyl-14-(1-methylpyrrolidin-3-yl)-2,9,10,11,12,14-hexahydro-8H-3,5-ethenotripyrazolo[3,4-f:4′,3′-j:4″,3″-n][1,4]oxazacyclopentadecine]
63.3 nM	16.8 nM	3.29 nM	9.18 nM	8.04 nM	0.39 nM	1.91 nM	CCN1CCOc2c(c(C)nn2C)/C=C/c2n[nH]c3ccc(cc23)-c2cnn(C)c2C1 [Example 111, (17E)-10-ethyl-8,14,16-trimethyl-2,9,10,11,12,14-hexahydro-8H-3,5-ethenotripyrazolo[3,4-f:4′,3′-j:4″,3″-n][1,4]oxazacyclopentadecine]
264 nM	383 nM	33.7 nM	15.2 nM	21.9 nM	0.77 nM	1.01 nM	Cc1c2c(nn1C[C@@H](C)O)CN(C)C[C@H](C)Oc1c(cnn1C)-c1ccc3[nH]nc(c3c1)/C=C/2 [Example 128, (2R)-1-[(10S,17E)-8,10,12,16-tetramethyl-2,8,10,11,12,13-hexahydro-15H-3,5-ethenotripyrazolo[3,4-f:3′,4′-j:4″,3″-n][1,4]oxazacyclopentadecin-15-yl]propan-2-ol]
457 nM	851 nM	81.1 nM	38.4 nM	84.3 nM	7.32 nM	5.66 nM	Cc1nn(C)c2c1CN(C)C[C@H](C)Oc1c(cnn1C)-c1ccc3[nH]nc(c3c1)/C=C/2 [Example 130, (10S,17E)-8,10,12,14,16-pentamethyl-2,10,11,12,13,16-hexahydro-8H-3,5-ethenotripyrazolo[4,3-f:3′,4′-j:4″,3″- n][1,4]oxazacyclopentadecine]
86 nM	109 nM	74.1 nM	39.8 nM	36.1 nM	12.5 nM	15.8 nM	Cc1nn([C@H]2CNC[C@@H]2O)c2c1/C=C/c1n[nH]c3ccc(cc13)-c1cnn(C)c1OCCCO2 (racemic) [Example 74, (rac)-4-[(17E)-8,16-dimethyl-2,8,11,12-tetrahydro-10H,14H-3,5-etheno[1,5]dioxacyclopentadecino[10,11-c:15,14-c′:6,7-c″ ]tripyrazol-14-yl]pyrrolidin-3-ol]
290 nM	362 nM	29.3 nM	44.5 nM	96.6 nM	13.1 nM	22.5 nM	CCc1nn(CCO)c2c1/C=C/c1n[nH]c3ccc(cc13)-c1cnn(C)c1OCCCO2 [Ex. 23, 2-[(17E)-16-ethyl-8-methyl-2,8,11,12-tetrahydro-10H,14H-3,5-etheno[1,5]dioxacyclopentadecino[10,11-c:15,14-c′:6,7-c″]tripyrazol-14-yl]ethan-1-ol]
41.9 nM	66.5 nM	34.1 nM	42.2 nM	13.6 nM	2.28 nM	11.3 nM	Cc1c2c(nn1[C@H]1C[C@@H](NCCN(C)C)C1)OCCCOc1c(cnn1C)-c1ccc3[nH]nc(c3c1)/C=C/2 [Example 107, N^2-{(1s,3s)-3-[(17E)-8,16-dimethyl-2,8,11,12-tetrahydro-10H,15H-3,5-etheno[1,5]dioxacyclopentadecino[10,11-c:15,14-c′:6,7-c″]tripyrazol-15-yl]cyclobutyl}-N^1,N^1-dimethylethane-1,2-diamine]
